# “And” between values parts separate entries of the source, which are not always exact repeats. Identical values can stand only once. Counter-ions that a name gives are not always drawn.
# Target: Histamine H1 receptor (Cavia porcellus, UniProt P31389)
# Sequence (P31389 whole entry): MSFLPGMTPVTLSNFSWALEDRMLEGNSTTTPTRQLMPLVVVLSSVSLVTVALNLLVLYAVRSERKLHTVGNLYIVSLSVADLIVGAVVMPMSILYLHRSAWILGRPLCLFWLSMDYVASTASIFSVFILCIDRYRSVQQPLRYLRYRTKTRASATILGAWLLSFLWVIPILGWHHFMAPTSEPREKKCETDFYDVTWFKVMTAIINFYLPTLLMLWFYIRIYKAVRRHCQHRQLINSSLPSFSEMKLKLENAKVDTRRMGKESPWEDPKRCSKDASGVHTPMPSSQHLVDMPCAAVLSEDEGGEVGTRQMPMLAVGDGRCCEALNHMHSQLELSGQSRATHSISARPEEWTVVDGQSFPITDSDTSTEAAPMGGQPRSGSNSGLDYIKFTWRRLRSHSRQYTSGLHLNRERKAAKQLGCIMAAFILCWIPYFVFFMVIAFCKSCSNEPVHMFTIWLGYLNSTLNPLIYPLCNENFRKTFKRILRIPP
row,SMILES,Ki
1,"CN[C@@H]1CC[C@@H](c2ccc(Cl)c(Cl)c2)c2ccccc21 [[4-(3,4-Dichloro-phenyl)-1,2,3,4-tetrahydro-naphthalen-1-yl]-methyl-amine]",6580 nM
2,COCCCC/C(=N\OCCN)c1ccc(C(F)(F)F)cc1 [(1E)-5-methoxy-1-[4-(trifluoromethyl)phenyl]pentan-1-one O-(2-aminoethyl)oxime],> 10000 nM
3,CN(C)CCCC1(c2ccc(F)cc2)OCc2cc(C#N)ccc21 (stereo not drawn) [CITALOPRAM HYDROBROMIDE],283 nM and 1970 nM
4,CN(C)CCC[C@]1(c2ccc(F)cc2)OCc2cc(C#N)ccc21 [R-citalopram],181 nM
5,Fc1ccc([C@@H]2CCNC[C@H]2COc2ccc3c(c2)OCO3)cc1 [PAROXETINE],> 10000 nM
6,CNCC[C@@H](Oc1ccc(C(F)(F)F)cc1)c1ccccc1 [Prozac],1550 nM
7,CNCC[C@@H](Oc1ccc(C(F)(F)F)cc1)c1ccccc1 [Fluoxetine-R-(-)],812 nM

# Target: T1, Alpha-1A adrenergic receptor (Homo sapiens, UniProt P35348)
# T1 sequence (P35348 whole entry): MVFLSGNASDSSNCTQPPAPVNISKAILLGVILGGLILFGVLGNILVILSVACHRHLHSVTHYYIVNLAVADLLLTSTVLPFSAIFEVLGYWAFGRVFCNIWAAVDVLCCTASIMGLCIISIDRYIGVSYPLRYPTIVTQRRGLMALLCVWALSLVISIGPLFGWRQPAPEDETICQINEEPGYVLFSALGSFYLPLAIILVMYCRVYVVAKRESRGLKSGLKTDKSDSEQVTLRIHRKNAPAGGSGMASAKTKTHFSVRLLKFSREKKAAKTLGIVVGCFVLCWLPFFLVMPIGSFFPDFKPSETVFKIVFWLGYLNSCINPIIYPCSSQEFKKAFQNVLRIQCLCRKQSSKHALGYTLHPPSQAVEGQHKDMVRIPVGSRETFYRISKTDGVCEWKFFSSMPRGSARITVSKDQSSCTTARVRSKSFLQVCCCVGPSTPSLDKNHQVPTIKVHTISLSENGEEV
row,SMILES,Ki
1,"CN[C@@H]1CC[C@@H](c2ccc(Cl)c(Cl)c2)c2ccccc21 [[4-(3,4-Dichloro-phenyl)-1,2,3,4-tetrahydro-naphthalen-1-yl]-methyl-amine]",188 nM

# Target: T2, 5-hydroxytryptamine receptor 2C (Sus scrofa, UniProt K7GSR7)
# T2 sequence (K7GSR7 whole entry): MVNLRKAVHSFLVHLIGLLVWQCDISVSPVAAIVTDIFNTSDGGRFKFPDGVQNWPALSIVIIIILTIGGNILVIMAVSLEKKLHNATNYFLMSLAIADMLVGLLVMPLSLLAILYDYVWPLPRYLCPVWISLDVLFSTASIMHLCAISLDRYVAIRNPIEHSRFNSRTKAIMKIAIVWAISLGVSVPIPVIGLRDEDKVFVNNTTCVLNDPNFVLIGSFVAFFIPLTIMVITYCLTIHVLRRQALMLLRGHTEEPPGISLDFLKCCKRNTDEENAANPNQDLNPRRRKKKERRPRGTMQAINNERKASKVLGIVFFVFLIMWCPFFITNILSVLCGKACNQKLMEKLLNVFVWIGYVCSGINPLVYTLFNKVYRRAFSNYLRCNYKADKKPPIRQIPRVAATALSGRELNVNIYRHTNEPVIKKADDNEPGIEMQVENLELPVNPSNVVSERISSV
row,SMILES,Ki
1,"CN[C@@H]1CC[C@@H](c2ccc(Cl)c(Cl)c2)c2ccccc21 [[4-(3,4-Dichloro-phenyl)-1,2,3,4-tetrahydro-naphthalen-1-yl]-methyl-amine]",2300 nM
2,COCCCC/C(=N\OCCN)c1ccc(C(F)(F)F)cc1 [(1E)-5-methoxy-1-[4-(trifluoromethyl)phenyl]pentan-1-one O-(2-aminoethyl)oxime],5790 nM
3,CN(C)CCCC1(c2ccc(F)cc2)OCc2cc(C#N)ccc21 (stereo not drawn) [CITALOPRAM HYDROBROMIDE],2050 nM and 2530 nM
4,CN(C)CCC[C@]1(c2ccc(F)cc2)OCc2cc(C#N)ccc21 [R-citalopram],1800 nM
5,Fc1ccc([C@@H]2CCNC[C@H]2COc2ccc3c(c2)OCO3)cc1 [PAROXETINE],9030 nM
